{"source": "paper PMC7934871", "about": "(JCI Insight, 2021)", "key": {"STAT5": {"tested_on": "STAT5", "assay": "Immunoprecipitation and Western blotting, STAT5", "type": "binding, human", "details": "immunoprecipitation, Western blotting, U251 cells", "description": "Figure 2 PS-acet.-STAT3-peptide specifically binds STAT3 in the nucleus. (A) Penetration of PS-acet.-STAT3 peptide and its colocalization with STAT3 protein in U251 cells are confirmed by confocal microscopy. Scale bars: 50 μm. Insets: original magnification, ×40. (B) PS-acet.-STAT3 peptide specifically binds to STAT3 protein, not STAT1 and STAT5 proteins, shown in U251 cells by immunoprecipitation followed by Western blotting (left panel). Expression of total STAT1, STAT3, and STAT5 was confirmed by Western blotting in U251 cells (input protein level, right panel).\nWhole cell lysates or tissue homogenates were prepared by using RIPA lysis buffer (50 mM Tris at pH 7.4, 150 mM NaCl, 1 mM EDTA, 0.5% NP-40, 1 mM NaF, 15% glycerol, and 20 mM β-glycerophosphate). […] Protein amounts were determined by BCA using a Thermo Fisher Scientific kit. […] The protein levels for STAT1 (sc-346, E-23), STAT3 (sc-482, C-20), STAT5 (sc-74442, A-9), Crm1 (exportin 1) (sc-5595, H-300), CAS (exportin 2) (sc-271537, H-2), exportin 5 (sc-66885, H-300), and exportin 7 (sc-98639, H-82) were determined using antibodies from Santa Cruz Biotechnology Inc. Anti–exportin 3 (exportin T, 630622, LOS1 05-1525), anti–exportin 4 (3499-1), and anti–exportin 6 (11408-1-AP) were from MilliporeSigma, Epitomics, and Proteintech, respectively. […]"}, "acetyl-STAT3": {"molecular_target": "T1, acetyl-STAT3 (Homo sapiens, UniProt P40763)", "T1 construct": "endogenous in cells; host or cells: HCT116", "T1 sequence (P40763 whole entry)": "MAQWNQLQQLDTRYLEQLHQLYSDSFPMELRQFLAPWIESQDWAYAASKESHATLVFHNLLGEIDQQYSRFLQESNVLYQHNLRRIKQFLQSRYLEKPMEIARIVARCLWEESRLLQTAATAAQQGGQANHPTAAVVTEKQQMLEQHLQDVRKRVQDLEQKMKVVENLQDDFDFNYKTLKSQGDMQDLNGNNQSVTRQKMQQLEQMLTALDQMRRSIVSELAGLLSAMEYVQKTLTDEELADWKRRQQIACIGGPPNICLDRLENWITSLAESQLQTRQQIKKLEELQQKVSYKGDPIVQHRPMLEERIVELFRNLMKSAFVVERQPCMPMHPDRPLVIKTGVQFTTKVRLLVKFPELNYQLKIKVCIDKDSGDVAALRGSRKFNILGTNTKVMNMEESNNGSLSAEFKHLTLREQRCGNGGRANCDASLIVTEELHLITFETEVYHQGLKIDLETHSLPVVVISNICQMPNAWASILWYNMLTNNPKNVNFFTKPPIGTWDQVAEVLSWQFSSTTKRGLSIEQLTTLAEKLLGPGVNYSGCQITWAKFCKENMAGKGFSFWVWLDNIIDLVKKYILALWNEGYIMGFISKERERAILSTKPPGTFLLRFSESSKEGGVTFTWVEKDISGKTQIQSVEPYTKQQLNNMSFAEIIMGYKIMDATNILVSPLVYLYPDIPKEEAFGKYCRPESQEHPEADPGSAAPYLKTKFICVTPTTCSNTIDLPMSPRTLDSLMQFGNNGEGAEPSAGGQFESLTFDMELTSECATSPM", "assay": "Immunoprecipitation of PS-oligo and Western blotting, acetyl-STAT3", "type": "binding", "details": "HCT116 cells, immunoprecipitation of PS-oligo, Western blotting", "protocol": "Whole cell lysates or tissue homogenates were prepared by using RIPA lysis buffer (50 mM Tris at pH 7.4, 150 mM NaCl, 1 mM EDTA, 0.5% NP-40, 1 mM NaF, 15% glycerol, and 20 mM β-glycerophosphate). A protease inhibitor cocktail (Mini Protease Inhibitor Cocktail; Roche) and a tyrosine phosphatase inhibitor, sodium orthovanadate (Na3VO4, 1 mM), were added freshly to the lysis buffer. Protein amounts were determined by BCA using a Thermo Fisher Scientific kit. Normalized protein amounts were subjected to an SDS-PAGE and transferred onto a nitrocellulose membrane for Western blotting. Proteins were visualized with a chemiluminescent detection kit (Pierce, Thermo Fisher Scientific). The protein levels for STAT1 (sc-346, E-23), STAT3 (sc-482, C-20), STAT5 (sc-74442, A-9), Crm1 (exportin 1) (sc-5595, H-300), CAS (exportin 2) (sc-271537, H-2), exportin 5 (sc-66885, H-300), and exportin 7 (sc-98639, H-82) were determined using antibodies from Santa Cruz Biotechnology Inc. Anti–exportin 3 (exportin T, 630622, LOS1 05-1525), anti–exportin 4 (3499-1), and anti–exportin 6 (11408-1-AP) were from MilliporeSigma, Epitomics, and Proteintech, respectively. […]\nlabeled PS-acet.-STAT3 peptide. The fluorescence intensity of FAM-labeled PS-acet.-STAT3 peptide in the cells was quantified by flow cytometry. […]\nquantification of FAM. […]\nabove were assessed by qRT-PCR. […]"}}}
{"substance": "PDIPKEEAFGK685(Ac)YCRPESQEHPC-linker-T*C*C*A*T*G*A*G*C*T*T*C*C*T*G*A*T*G*C*T [PS-acet.-STAT3 peptide]", "values": [{"measurement": "binding to STAT5 protein", "setting": "STAT5", "value": "not"}, {"measurement": "binding to acetyl-STAT3", "setting": "acetyl-STAT3", "value": "directly bound"}]}
